{"source": "paper PMC5620994", "about": "“Halogenation of glycopeptide antibiotics occurs at the amino acid level during non-ribosomal peptide synthesis” (Chemical Science, 2017)", "key": {"[1]": {"biological_target": "T1, BhaA (balhimycin halogenase) (Amycolatopsis balhimycina, UniProt O87676)", "T1 construct": "overproduced in Pseudomonas fluorescens BL915 deltaORF1-4 from shuttle vector pCIBhis (His tag)", "T1 sequence (O87676 entry or part of it)": "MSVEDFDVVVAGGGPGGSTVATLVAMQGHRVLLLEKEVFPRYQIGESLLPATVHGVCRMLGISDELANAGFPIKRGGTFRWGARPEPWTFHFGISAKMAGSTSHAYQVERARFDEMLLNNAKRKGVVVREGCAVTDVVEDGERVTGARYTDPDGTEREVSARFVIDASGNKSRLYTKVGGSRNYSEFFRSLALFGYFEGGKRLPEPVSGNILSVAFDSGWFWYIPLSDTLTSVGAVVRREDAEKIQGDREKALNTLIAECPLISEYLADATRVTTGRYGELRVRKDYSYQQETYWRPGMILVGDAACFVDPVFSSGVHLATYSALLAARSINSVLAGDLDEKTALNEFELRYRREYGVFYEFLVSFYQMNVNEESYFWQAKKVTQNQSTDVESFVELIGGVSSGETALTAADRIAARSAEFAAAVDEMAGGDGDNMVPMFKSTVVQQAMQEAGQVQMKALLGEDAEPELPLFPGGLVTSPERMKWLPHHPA", "assay": "purified as FAD-bound form", "format": "binding", "conditions": "FAD co-purified with the enzyme"}, "[2]": {"biological_target": "T2, Tcp21 (halogenase from the teicoplanin system) (Actinoplanes teichomyceticus, UniProt Q70AY7)", "T2 construct": "synthetic codon-optimised gene, selected range 16-506, pET-28(a) via NdeI/HindIII, His-tagged, expressed in E. coli", "T2 sequence (Q70AY7 16-506)": "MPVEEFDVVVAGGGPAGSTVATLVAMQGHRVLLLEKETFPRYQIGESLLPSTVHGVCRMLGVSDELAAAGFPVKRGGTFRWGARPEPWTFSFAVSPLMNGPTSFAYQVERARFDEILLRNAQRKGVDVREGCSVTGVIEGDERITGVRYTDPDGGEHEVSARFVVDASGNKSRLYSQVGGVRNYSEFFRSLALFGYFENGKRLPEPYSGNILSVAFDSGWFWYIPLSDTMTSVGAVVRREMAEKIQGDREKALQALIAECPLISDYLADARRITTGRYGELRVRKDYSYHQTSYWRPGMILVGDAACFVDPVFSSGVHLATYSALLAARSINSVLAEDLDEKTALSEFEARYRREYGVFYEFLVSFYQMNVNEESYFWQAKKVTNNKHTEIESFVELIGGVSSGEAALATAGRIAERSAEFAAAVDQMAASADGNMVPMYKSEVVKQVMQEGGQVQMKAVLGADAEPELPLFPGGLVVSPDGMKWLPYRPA", "assay": "purified as FAD-bound form", "format": "binding", "conditions": "FAD co-purified with the enzyme"}}}
{"smiles": "Cc1cc2nc3c(=O)[nH]c(=O)nc-3n(C[C@H](O)[C@H](O)[C@H](O)COP(=O)(O)OP(=O)(O)OC[C@H]3O[C@@H](n4cnc5c(N)ncnc54)[C@H](O)[C@@H]3O)c2cc1C", "note": "[FAD]", "values": [{"measurement": "purified as FAD-bound form", "setting": "[1]", "value": "Both enzymes could be overproduced and purified in an FAD-bound form as anticipated"}, {"measurement": "purified as FAD-bound form", "setting": "[2]", "value": "Both enzymes could be overproduced and purified in an FAD-bound form as anticipated"}]}
